Molecules are shown by their SMILES.

The source of these data is BindingDB's records for PubMed 2704370 (National Institute of Mental Health, 1989).

For assay [1], the target named is T1, Muscarinic acetylcholine receptor M5 (Homo sapiens, UniProt P08912).
T1 sequence (P08912 whole entry): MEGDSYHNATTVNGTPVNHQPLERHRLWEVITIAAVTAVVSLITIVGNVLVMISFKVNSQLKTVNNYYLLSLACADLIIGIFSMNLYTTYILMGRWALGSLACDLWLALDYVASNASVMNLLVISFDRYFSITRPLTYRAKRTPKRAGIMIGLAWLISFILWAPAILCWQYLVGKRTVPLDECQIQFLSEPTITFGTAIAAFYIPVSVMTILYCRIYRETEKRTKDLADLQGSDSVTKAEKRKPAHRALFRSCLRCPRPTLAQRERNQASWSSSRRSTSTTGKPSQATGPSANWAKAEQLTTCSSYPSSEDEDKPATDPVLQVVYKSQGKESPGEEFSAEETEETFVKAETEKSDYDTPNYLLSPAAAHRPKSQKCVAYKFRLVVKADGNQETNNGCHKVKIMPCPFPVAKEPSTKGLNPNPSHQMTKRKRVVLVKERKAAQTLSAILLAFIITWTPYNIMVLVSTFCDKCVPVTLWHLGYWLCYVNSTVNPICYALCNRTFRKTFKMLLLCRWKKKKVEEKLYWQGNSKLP

Assay [2] deals with T2, Muscarinic acetylcholine receptor M1 (Rattus norvegicus, UniProt P08482).
T2 sequence (P08482 whole entry): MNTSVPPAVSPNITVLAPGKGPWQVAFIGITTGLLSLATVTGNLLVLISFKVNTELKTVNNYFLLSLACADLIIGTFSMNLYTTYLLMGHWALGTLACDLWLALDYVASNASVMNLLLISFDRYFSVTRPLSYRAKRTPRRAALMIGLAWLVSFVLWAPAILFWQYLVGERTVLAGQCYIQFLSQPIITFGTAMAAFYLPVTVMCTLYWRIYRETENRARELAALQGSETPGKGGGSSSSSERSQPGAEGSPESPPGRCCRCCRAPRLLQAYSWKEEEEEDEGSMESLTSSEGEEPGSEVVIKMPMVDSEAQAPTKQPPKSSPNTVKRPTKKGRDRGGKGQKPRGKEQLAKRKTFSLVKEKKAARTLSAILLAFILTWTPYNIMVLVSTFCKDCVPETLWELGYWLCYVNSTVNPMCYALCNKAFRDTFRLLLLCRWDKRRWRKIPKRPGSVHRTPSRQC

Assay [3] concerns the target T3, Muscarinic acetylcholine receptor M4 (Homo sapiens, UniProt P08173).
T3 sequence (P08173 whole entry): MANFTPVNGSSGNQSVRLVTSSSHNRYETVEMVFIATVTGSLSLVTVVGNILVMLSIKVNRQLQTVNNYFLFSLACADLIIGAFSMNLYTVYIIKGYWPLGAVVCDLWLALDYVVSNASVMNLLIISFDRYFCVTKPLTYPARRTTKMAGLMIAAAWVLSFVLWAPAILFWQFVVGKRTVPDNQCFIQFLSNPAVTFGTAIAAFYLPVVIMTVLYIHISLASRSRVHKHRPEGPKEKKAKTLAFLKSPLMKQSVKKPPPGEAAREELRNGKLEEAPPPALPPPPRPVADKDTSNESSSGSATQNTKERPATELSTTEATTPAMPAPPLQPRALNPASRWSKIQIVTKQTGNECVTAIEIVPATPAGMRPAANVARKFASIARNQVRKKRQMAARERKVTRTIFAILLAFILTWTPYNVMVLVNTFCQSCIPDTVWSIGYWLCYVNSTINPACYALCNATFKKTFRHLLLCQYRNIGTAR

A word on the Ki: it is a measure of affinity in units of concentration, obtained from inhibition or displacement. Lower therefore signals a stronger hold on the target. `COc1ccccc1CNCCCCCCNCCCCCCCCNCCCCCCNCc1ccccc1OC` [METHOCTRAMINE]: the affinity in assay [1] corresponds to a Ki of 57 nM.
As to `O[Si](CCCN1CCCCC1)(c1ccccc1)C1CCCCC1` (stereo unspecified) [HHSiD], the Ki in assay [2] amounted to 44 nM; in assay [1], 63 nM.
Turning to `C[N+]1(C)CCN(CC(O)(c2ccccc2)C2CCCCC2)CC1` (stereo unspecified) [CAS_115-63-9], the Ki in assay [2] worked out at 2.3 nM; in assay [3], 5.5 nM; in assay [1], 3.7 nM.
Take `OC(CCCN1CCCCC1)(c1ccccc1)C1CCCCC1` (stereo unspecified) [CAS_113010-69-8]: the figures for the Ki in assay [2] and in assay [1] were 11 nM and 83 nM, respectively.
As for `C[N+]1([SiH3])CCN(CC(O)(c2ccccc2)C2CCCCC2)CC1` (stereo unspecified) [CAS_124393-85-7], the Ki was 2 nM in assay [2], 3.2 nM in assay [3] and 2 nM in assay [1].
